Reference: patent US8946257B2, “N-containing heteroaryl derivatives as JAK3 kinase inhibitors” (Vectura Limited, priority 2009, dated 2015)

What was measured:
[1] = target: T1, catalytic domain of human JAK2 (Homo sapiens, UniProt O60674); experiment: Inhibition of JAK2 activity (Z'-Lyte Kinase Assay kit-Tyr 6 Peptide); assay type: biochemical
T1 construct: the catalytic domain of human JAK2
Method: The inhibition of JAK2 kinase activity was determined in 384-well assay microplates using the Z′-Lyte® Kinase Assay kit-Tyr 6 Peptide kit, supplied by Invitrogen (Ref: PV4122), following the manufacturer's instructions.
(§1) In a final volume of 10 μL per well, 2.5 μL of the product to be tested dissolved in 4% DMSO (final concentration of the product to be tested, 0.1-10000 nM) was incubated with 0.5 μg/well of the catalytic domain of human JAK2, 2 μM of the substrate peptide Z′-Lyte® Tyr 6 and 16 μM of ATP; all components were dissolved in 50 mM pH 7.5 Hepes buffer, 10 mM Magnesium chloride (II), 1 mM EGTA and 0.01% Brij® 35. The reaction was started by the addition of said 16 μM ATP; after incubation for 1 hour at 25° C., 5 μL of A Z′-Lyte® Tyr 6 development reagent was added and the mixture was incubated for 1 hour at 25° C. Phosphorylation was then quantified in each well using a Safire2® fluorescence microplate reader from Tecan.

[2] = target: catalytic domain of human JAK3 (Homo sapiens, UniProt P52333); experiment: Inhibition of JAK3 activity (Z'-Lyte Kinase Assay kit-Tyr 6 Peptide); assay type: biochemical
catalytic domain of human JAK3, sequence (P52333 781-1124 limits assumed): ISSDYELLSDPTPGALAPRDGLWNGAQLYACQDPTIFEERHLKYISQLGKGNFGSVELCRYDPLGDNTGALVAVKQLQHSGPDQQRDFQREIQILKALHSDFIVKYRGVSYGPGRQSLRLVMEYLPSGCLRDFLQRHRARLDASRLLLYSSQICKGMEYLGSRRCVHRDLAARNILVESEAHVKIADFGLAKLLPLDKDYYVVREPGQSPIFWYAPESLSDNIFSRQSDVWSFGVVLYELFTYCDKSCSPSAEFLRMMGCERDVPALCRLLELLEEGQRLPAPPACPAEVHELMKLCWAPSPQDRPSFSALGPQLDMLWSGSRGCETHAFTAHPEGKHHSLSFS
Method: The inhibition of JAK3 kinase activity was determined in 384-well assay microplates using the Z′-Lyte® Kinase Assay kit-Tyr 6 Peptide kit, supplied by Invitrogan (Ref: PV4122), following the manufacturer's instructions.
as §1, with “0.3 μg/mL” for “0.5 μg/well”, “JAK3 (amino acid sequence […]),” for “JAK2,”, “4” for “16”

T1 sequence (O60674 849-1124 limits assumed): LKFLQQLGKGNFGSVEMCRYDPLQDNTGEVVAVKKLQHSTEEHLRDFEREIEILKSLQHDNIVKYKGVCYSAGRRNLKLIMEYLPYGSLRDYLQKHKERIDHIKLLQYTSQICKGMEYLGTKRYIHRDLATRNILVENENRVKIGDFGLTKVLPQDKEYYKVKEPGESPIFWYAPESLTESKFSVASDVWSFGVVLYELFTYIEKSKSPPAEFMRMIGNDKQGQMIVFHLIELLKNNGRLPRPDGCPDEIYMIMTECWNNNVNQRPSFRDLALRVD

inhibition at 1 µM [1] | inhibition at 1 µM [2] | SMILES
> 50% | > 50% | CC(=O)N1CCC[C@H](n2c(=O)n(C)c3ccc(-c4cnn5ccccc45)nc32)C1 [Example 24, (S)-3-(1-Acetylpiperidin-3-yl)-1-methyl-5-(pyrazolo[1,5-a]pyridin-3-yl)-1H-imidazo[4,5-b]pyridin-2(3H)-one]
> 50% | > 50% | Cn1c(=O)n([C@H]2CCCN(C(=O)C3(C#N)CC3)C2)c2nc(-c3cnn4ccccc34)ccc21 [Example 25, (S)-1-(3-(1-Methyl-2-oxo-5-(pyrazolo[1,5-a]pyridin-3-yl)-1H-imidazo[4,5-b]pyridin-3(2H)-yl)piperidine-1-carbonyl)cyclopropanecarbonitrile]
> 50% | > 50% | N#Cc1ccn2ncc(-c3ncc4[nH]c(=O)n([C@H]5CCCN(C(=O)C6(C#N)CC6)C5)c4n3)c2c1 [Example 27, (S)-3-(9-(1-(1-Cyanocyclopropanecarbonyl)piperidin-3-yl)-8-oxo-8,9-dihydro-7H-purin-2-yl)pyrazolo[1,5-a]pyridine-5-carbonitrile]
> 50% | > 50% | Cc1ccn2ncc(-c3ncc4ncn([C@H]5CCCN(C(=O)CC#N)C5)c4n3)c2c1 [Example 29, (S)-3-(3-(2-(5-Methylpyrazolo[1,5-a]pyridin-3-yl)-9H-purin-9-yl)piperidin-1-yl)-3-oxopropanenitrile]
> 50% | > 50% | CC(=O)OCn1c(=O)n([C@H]2CCCN(C(=O)CC#N)C2)c2nc(-c3cnn4ccccc34)ncc21 [Example 31, (S)-(9-(1-(2-Cyanoacetyl)piperidin-3-yl)-8-oxo-2-(pyrazolo[1,5-a]pyridin-3-yl)-8,9-dihydro-7H-purin-7-yl)methyl acetate]
> 50% | > 50% | Nc1nc2cnc(-c3cnn4ccccc34)nc2n1C1CCOCC1 [Example 33, 2-(Pyrazolo[1,5-a]pyridin-3-yl)-9-(tetrahydro-2H-pyran-4-yl)-9H-purin-8-amine]
> 50% | > 50% | O=C1CCCN1c1nc2cnc(-c3cnn4ccccc34)nc2n1C1CCOCC1 [Example 34, 1-(2-(Pyrazolo[1,5-a]pyridin-3-yl)-9-(tetrahydro-2H-pyran-4-yl)-9H-purin-8-yl)pyrrolidin-2-one]
